Data taken from ChEMBL document CHEMBL4152208, “Synthesis and structure-activity relationships of quinolinone and quinoline-based P2X7 receptor antagonists and their anti-sphere formation activities in glioblastoma cells” (Eur J Med Chem, 2018).
pIC50: −log10 of the molar value. Each block holds one compound with its values, some of them ahead of it. The source made the active and inactive calls. The rule behind the calls is not given here.

How the values were obtained:
[1] = target: T1, P2X purinoceptor 7 (Homo sapiens, UniProt Q99572); assay: Antagonist activity at human P2X7 receptor in expressed in HEK293 cells assessed as inhibition of BzATP-induced EtBr uptake; assay type: cell-based
T1 sequence (Q99572 whole entry): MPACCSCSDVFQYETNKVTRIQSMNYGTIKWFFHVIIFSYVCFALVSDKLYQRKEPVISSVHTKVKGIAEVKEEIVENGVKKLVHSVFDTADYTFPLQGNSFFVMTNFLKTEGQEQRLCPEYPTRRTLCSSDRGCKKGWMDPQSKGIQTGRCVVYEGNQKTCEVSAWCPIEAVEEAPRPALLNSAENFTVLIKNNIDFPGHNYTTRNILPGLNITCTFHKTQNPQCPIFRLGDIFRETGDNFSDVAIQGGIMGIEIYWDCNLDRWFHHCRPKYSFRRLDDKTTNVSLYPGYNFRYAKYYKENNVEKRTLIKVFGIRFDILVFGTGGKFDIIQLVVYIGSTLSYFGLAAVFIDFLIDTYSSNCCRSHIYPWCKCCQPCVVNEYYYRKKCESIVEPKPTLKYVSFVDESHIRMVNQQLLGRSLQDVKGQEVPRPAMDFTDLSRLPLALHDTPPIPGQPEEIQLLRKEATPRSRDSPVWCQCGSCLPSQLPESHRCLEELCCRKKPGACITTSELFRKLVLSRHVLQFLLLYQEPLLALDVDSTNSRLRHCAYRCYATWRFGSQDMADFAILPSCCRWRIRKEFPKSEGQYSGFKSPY

[2] = Kinetic solubility of the compound in PAMPA buffer at 25 uM by nepheolometry method; assay type: physicochemical
[3] = Metabolic stability in mouse liver microsomes assessed as parent compound remaining at 1 uM up to 30 mins in presence of NADPH by LC-MS/MS analysis; assay type: ADME, microsome; conditions: read-out: Stability
[4] = target: T1, P2X purinoceptor 7; assay: Antagonist activity at P2X7 in LPS/IFN gamma differentiated human THP-1 cells assessed as inhibition of BzATP-induced IL-1beta release preincubated for 30 mins followed by BzATP stimulation for 30 mins by ELISA; assay type: cell-based
[5] = species: Homo sapiens; assay: Antiproliferative activity against human TS15-88 cells at 50 uM after 72 hrs by MTS assay; assay type: functional, cell-based
[6] = species: Homo sapiens; assay: Antiproliferative activity against human TS15-88 cells at 50 uM after 24 hrs by MTS assay; assay type: functional, cell-based
[7] = Metabolic stability in rat liver microsomes assessed as parent compound remaining at 1 uM up to 30 mins in presence of NADPH by LC-MS/MS analysis; assay type: ADME, microsome; conditions: read-out: Stability
[8] = target: T2, P2X purinoceptor 7 (Homo sapiens) (UniProt Q99572); assay: Antagonist activity at human P2X7 receptor expressed in HEK293 cells assessed as inhibition of BzATP-induced EtBr uptake at 1 uM after 2 hrs by fluorescence assay relative to control; assay type: cell-based
T2 sequence (whole entry): T1 sequence (Q99572 whole entry)

[9] = Kinetic solubility of the compound in PAMPA buffer at 12.5 uM by nepheolometry method; assay type: physicochemical
[10] = Inhibition of neurosphere formation in human TS15-88 cells assessed as decrease in sphere size at 50 uM after 5 days by microscopic analysis relative to control; assay type: functional; conditions: 120 h
[11] = Cytotoxicity against HEK293 cells expressing human P2X7 receptor assessed as cell survival at 10 uM by MTT assay relative to control; assay type: cell-based; conditions: read-out: Survival
[12] = Effective permeability of the compound at 50 uM after 4 hrs by BBB-PAMPA method; assay type: ADME; conditions: read-out: Peff
[13] = target: T2, P2X purinoceptor 7 (Homo sapiens); assay: Antagonist activity at human P2X7 receptor expressed in HEK293 cells assessed as inhibition of BzATP-induced EtBr uptake at 10 uM after 2 hrs by fluorescence assay relative to control; assay type: cell-based
[14] = Kinetic solubility of the compound in PAMPA buffer at 50 uM by nepheolometry method; assay type: physicochemical
[15] = target: T1, P2X purinoceptor 7; assay: Antagonist activity at human P2X7 receptor expressed in HEK293 cells assessed as inhibition of BzATP-induced EtBr uptake after 2 hrs by fluorescence assay relative to control; assay type: cell-based
[16] = Metabolic stability in human liver microsomes assessed as parent compound remaining at 1 uM up to 30 mins in presence of NADPH by LC-MS/MS analysis; assay type: ADME, microsome; conditions: read-out: Stability
[17] = target: T3, P2X purinoceptor 3 (Homo sapiens, UniProt P56373); assay: Antagonist activity at human P2X3 receptor expressed in 1321N1 cells assessed as inhibition of ATP-induced calcium flux measured for 30 secs at 0.4 secs intervals by Flou-4-AM dye based fluorescence assay; assay type: cell-based; conditions: read-out: IC50
T3 sequence (P56373 whole entry): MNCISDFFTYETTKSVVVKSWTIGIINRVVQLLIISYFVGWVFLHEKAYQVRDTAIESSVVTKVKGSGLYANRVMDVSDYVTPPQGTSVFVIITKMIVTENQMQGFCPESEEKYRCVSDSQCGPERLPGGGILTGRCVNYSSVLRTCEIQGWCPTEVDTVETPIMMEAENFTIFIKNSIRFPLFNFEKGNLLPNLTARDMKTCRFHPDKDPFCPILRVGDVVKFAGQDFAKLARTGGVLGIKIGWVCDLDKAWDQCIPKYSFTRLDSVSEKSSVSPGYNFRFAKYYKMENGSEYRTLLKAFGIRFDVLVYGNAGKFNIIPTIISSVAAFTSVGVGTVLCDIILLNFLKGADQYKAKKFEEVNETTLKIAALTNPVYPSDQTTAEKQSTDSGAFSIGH

[18] = Antiproliferative activity against human TS15-88 cells after 24 to 72 hrs by MTS assay; assay type: functional, cell-based
[19] = target: T2, P2X purinoceptor 7 (Homo sapiens); assay: Antagonist activity at P2X7 in LPS/IFN gamma differentiated human THP-1 cells assessed as inhibition of BzATP-induced IL-1beta release at 1 uM preincubated for 30 mins followed by BzATP stimulation for 30 mins by ELISA; assay type: cell-based
[20] = target: T2, P2X purinoceptor 7 (Homo sapiens); assay: Antagonist activity at P2X7 in LPS/IFN gamma differentiated human THP-1 cells assessed as inhibition of BzATP-induced IL-1beta release at 10 uM preincubated for 30 mins followed by BzATP stimulation for 30 mins by ELISA; assay type: cell-based

pIC50 [1]: 7.07
Structure (SMILES): N[C@H]1CCN(Cc2ccc(Cl)c(C(=O)NCC34CC5CC(CC(C5)C3)C4)c2)C1

Structure (SMILES): O=C(CC12CC3CC(CC(C3)C1)C2)Nc1cccc2nc(-c3ccc(CO)cc3)ccc12
Kinetic_solubility [2]: Soluble | remaining at 0.5 h, 1 µM [3]: 17% | pIC50 [4]: 7.92 | Activity [5]: Active | Activity [6]: Active | remaining at 0.5 h, 1 µM [7]: 11.2% | inhibition [8]: 95% | Kinetic_solubility [9]: Soluble | inhibition at 50 µM [10]: > 50% | viability at 10 µM [11]: 95% | Papp at 4 h, 50 µM [12]: 17.7 ×10⁻⁶ cm/s | inhibition [13]: 98% | Kinetic_solubility [14]: Soluble | pIC50 [15]: 8.52 | remaining at 0.5 h, 1 µM [16]: 17.9%

Structure (SMILES): CC(=O)[C@H]1CC[C@H]2[C@@H]3CCC4=CC(=O)CC[C@]4(C)[C@H]3CC[C@]12C [PROGESTERONE]
pIC50 [17]: 5.80 | Papp at 4 h, 50 µM [12]: 36.6 ×10⁻⁶ cm/s

pIC50 [1]: 6.52
Structure (SMILES): Clc1cccc(-c2nnnn2Cc2cccnc2)c1Cl

Structure (SMILES): O=C(CC12CC3CC(CC(C3)C1)C2)Nc1cccc2nc(-c3ccc(O)cc3)ccc12
Kinetic_solubility [2]: Soluble | remaining at 0.5 h, 1 µM [3]: 14.5% | pIC50 [4]: 8.22 | Activity [5]: Active | Activity [6]: Active | remaining at 0.5 h, 1 µM [7]: 12.9% | inhibition [8]: 79% | pIC50 [18]: 4.59 | Kinetic_solubility [9]: Soluble | inhibition at 50 µM [10]: > 50% | viability at 10 µM [11]: 94% | Papp at 4 h, 50 µM [12]: 16.4 ×10⁻⁶ cm/s | inhibition [13]: 95% | Kinetic_solubility [14]: Soluble | pIC50 [15]: 8.10 | remaining at 0.5 h, 1 µM [16]: 21.5%

inhibition [8]: 66% | inhibition [19]: 12% | inhibition [13]: 86% | inhibition [20]: 35% | pIC50 [15]: 6.05
Structure (SMILES): COC(=O)c1cc2c(NC(=O)C34CC5CC(CC(C5)C3)C4)cccc2n(Cc2ccc(F)cc2)c1=O

inhibition [8]: 61% | inhibition [19]: 38% | inhibition [13]: 85% | inhibition [20]: 42% | pIC50 [15]: 6.09
Structure (SMILES): COC(=O)c1cc2c(NC(=O)C34CC5CC(CC(C5)C3)C4)cccc2n(Cc2ccc([N+](=O)[O-])cc2)c1=O
